# Laboratory results: patent US20220096509A1, “Reformulating Hospital Gentamicin to reduce the risk of hearing loss while maintaining antimicrobial activity” (priority 2019, published 2022)
# “And” between values parts separate entries of the source, which are not always exact repeats. Equal values may be shown once. “Also recorded” adds a separate entry of the source. Read-outs that look alike come from different tables or passages of the source.
# Tests used:
# [1] = tested on: rat cochlear hair cells; conditions: for EC50: read-out: EC50±SE, hair cell survival (ototoxicity)
# [2] = tested on: S. aureus; format: cell-based; conditions: for antimicrobial potency relative to hospital bottle: Mann Whitney U Test
# Excerpt: (§1) The colors represent different species, the numbers in the columns refer to the number of individual strains inhibited, where black=S. aureus, grey=E. coli, blue=K. pneumoniae, white=P. aeruginosa. […] (2B) The MIC values for each strain (diamond symbols) split by species, where Hospital=red, C1=orange, blue=C1a, cyan=C2, green=C2a, purple=C2b (grey scale only). Filled symbols indicate strains with antimicrobial resistance. The box indicates the 25-75 percentiles, stars indicate geometric means, *=P<0.05, **=P<0.01 tested using Mann Whitney U Non-Parametric analysis. […] (2C) The antimicrobial breadths of the impurities relative to a hospital bottle. […] (2D) The MIC values for each strain split by species.
# (§2) The antimicrobial activity of the main components of gentamicin were studied relative to a single hospital bottle (gentamicin mixture) from Stanford University Hospital.
# [3] = tested on: P. aeruginosa; test: MIC against P. aeruginosa strains; format: cell-based
# Excerpt: as §1, §2
# [4] = tested on: S. aureus, E. coli, K. pneumoniae, P. aeruginosa strains; test: Antimicrobial breadth and potency (MIC) across 40 bacterial strains; format: cell-based
# Excerpt: as §1, §2
# [5] = tested on: E. coli; test: MIC against E. coli strains; format: cell-based; conditions: Mann Whitney U Test
# Excerpt: (§3) […]. The colors represent different species, the numbers in the columns refer to the number of individual strains inhibited, where black=S. aureus, grey=E. coli, blue=K. pneumoniae, white=P. aeruginosa. The hospital bottle inhibits 35/40 strains tested, with the C-components inhibiting 31-35 strains. (2B) The MIC values for each strain (diamond symbols) split by species, where Hospital=red, C1=orange, blue=C1a, cyan=C2, green=C2a, purple=C2b (grey scale only). Filled symbols indicate strains with antimicrobial resistance. The box indicates the 25-75 percentiles, stars indicate geometric means, *=P<0.05, **=P<0.01 tested using Mann Whitney U Non-Parametric analysis. […] There are also some differences between individual components in S. aureus and P. aeruginosa. (2C) The antimicrobial breadths of the impurities relative to a hospital bottle. The hospital bottle inhibits 35/40 strains tested, with the impurities Gent B, Gent A, Gent X and G418 inhibiting 15-21 strains. One impurity, Sisomicin inhibited 35/40 strains. (2D) The MIC values for each strain split by species. […].
# [6] = tested on: K. pneumoniae; test: MIC against K. pneumoniae strains; format: cell-based; conditions: Mann Whitney U Test
# Excerpt: as §3
# [7] = tested on: rat cochlear hair cells; test: tissue or blood; conditions: read-out: EC50±SE, hair cell survival (ototoxicity)
# [8] = mid-apical region of the cochlea, n>5 per data point, logarithmic function best fit
compound,measurement,setting,value
"CN[C@@H]1[C@@H](O)[C@@H](O[C@@H]2[C@@H](O)[C@H](O[C@H]3O[C@H]([C@@H](C)O)[C@@H](O)[C@H](O)[C@H]3N)[C@@H](N)C[C@H]2N)OC[C@]1(C)O [G418, geneticin, reference compound]",ototoxicity relative to hospital bottle,[1],more ototoxic at lower doses than the hospital but requires a higher dose to kill all hair cells than the hospital
gentamicin C1a,Geomean MIC,[2],0.29 µg/mL
same,antimicrobial potency relative to C1 component,[2],more antimicrobial than the C1 component
same,Geomean MIC,[3],0.71 µg/mL
same,antimicrobial potency relative to C1 component,[3],more antimicrobial than the C1 component
same,EC50,[1],816 ± 18 µM
"CN[C@@H]1[C@@H](O)[C@@H](O[C@@H]2[C@@H](O)[C@H](O[C@H]3O[C@H]([C@H](C)N)CC[C@H]3N)[C@@H](N)C[C@H]2N)OC[C@]1(C)O [C2a, gentamicin C2a]",ototoxicity relative to hospital bottle,[1],not significantly different from the hospital bottle
same,EC50,[1]; [8],614 ± 69 µM
"CN[C@@H]1[C@@H](O)[C@@H](O[C@@H]2[C@@H](O)[C@H](O[C@H]3O[C@H]([C@@H](C)NC)CC[C@H]3N)[C@@H](N)C[C@H]2N)OC[C@]1(C)O [C1, gentamicin C1]",antimicrobial potency among the components,[4],lowest antimicrobial potency
same,antimicrobial potency relative to hospital bottle,[2]; S. aureus,less potent than the hospital bottle; also recorded: less antimicrobial than the hospital bottle
same,Geomean MIC,"[2]; S. aureus, n=10 strains",0.53 µg/mL and 0.54 µg/mL
same,Geomean MIC,"[3]; P. aeruginosa, n≥8 strains",1.52 µg/mL
same,ototoxicity relative to hospital bottle,[1],not significantly different from the hospital bottle
same,EC50,[1]; [8],755 ± 60 µM
CN[C@@H]1[C@@H](O)[C@@H](O[C@@H]2[C@@H](O)[C@H](O[C@H]3OC(CN)=CC[C@H]3N)[C@@H](N)C[C@H]2N)OC[C@]1(C)O [Sisomicin],number of strains inhibited (antimicrobial breadth),"[4]; 40 strains tested, breadth defined as MIC value ≤4μg/ml",35/40
same,antimicrobial potency relative to hospital bottle,[2]; S. aureus,more potent than the hospital
same,antimicrobial potency relative to hospital bottle,"[3]; P. aeruginosa, Mann Whitney U Test",more potent than the hospital
same,antimicrobial potency relative to hospital bottle,[5],equi-potent to the hospital
same,antimicrobial potency relative to hospital bottle,[6],equi-potent to the hospital
same,ototoxicity relative to hospital bottle,[1],more ototoxic than the hospital
same,EC50,[7],212 ± 7 µM
"CN[C@@H]1[C@@H](O)[C@@H](O[C@@H]2[C@@H](O)[C@H](O[C@H]3O[C@H]([C@@H](C)N)CC[C@H]3N)[C@@H](N)C[C@H]2N)OC[C@]1(C)O [C2, gentamicin C2]",ototoxicity among the drug components,[1],most ototoxic component
same,EC50,[1]; [8],402 ± 38 µM
"CNC[C@@H]1CC[C@@H](N)[C@@H](O[C@H]2[C@H](O)[C@@H](O[C@H]3OC[C@](C)(O)[C@H](NC)[C@H]3O)[C@H](N)C[C@@H]2N)O1 [C2b, gentamicin C2b]",ototoxicity relative to hospital bottle,[1],less ototoxic than the hospital bottle
same,EC50,[1]; [8],1200 ± 114 µM
CN[C@@H]1[C@@H](O)[C@@H](O[C@@H]2[C@@H](O)[C@H](O[C@H]3O[C@H](CN)[C@@H](O)[C@H](O)[C@H]3O)[C@@H](N)C[C@H]2N)OC[C@]1(C)O [Gent B],antimicrobial potency relative to hospital bottle,"[4]; all species tested, P<0.05, n≥8 strains",significantly less potent than the hospital bottle
